Data as given in PMC11868595, “Safety, pharmacokinetics and efficacy of HA121-28 in patients with advanced solid tumors and RET fusion-positive non-small-cell lung cancer: a multicenter, open-label, single-arm phase 1/2 trial” (Signal Transduction and Targeted Therapy, 2025).

System: patients with RET fusion-positive NSCLC
Assay: Phase 2 trial: adverse events (CTCAE)
Assay type: in vivo, human
Description: The phase 2 trial was still ongoing. It was a single-arm, multicenter, open-label, nonrandomized study to assess the efficacy and safety of HA121-28 in RET-fusion-positive NSCLC.
Patients aged 18–75 years (inclusive) who had unresectable locally advanced or metastatic NSCLC through histologically or cytologically examination were enrolled. Patients were also required to have documented RET fusions centrally examined by next-generation sequencing in certified laboratories but without other oncogenic alterations. Had progression on at least one previous line of standard treatment but have no previous use of other anti-RET inhibitors. The complete lists of inclusion and exclusion criteria of phase 1 and phase 2 are provided in both protocols (in Supplement).
In phase 1 trial, during the dose-escalation part, patients first administered HA121-28 in a single ascending dose under the fasted state, then followed up for seven days. Then, patients received ascending doses of HA121-28 (q.d.) on a 21-day on and 7-day off treatment scheme for a 28-day cycle. For patients deemed beneficial from the treatment by investigators, treatment could remain until disease progression, or they discontinued from the study. In the dose-expansion part of phase 1, as well as phase 2, patients received HA121-28 (q.d.) at the selected doses on a 21-day on and 7-day off treatment scheme until disease progression, or they discontinued from the study.
Treatment-emergent adverse events (TEAEs) were documented during the entire study period. The predefined adverse event of special interest (AESI) was ≥ grade 3 prolonged QT interval. Tumor imaging was performed using contrast-enhanced computed tomography or magnetic resonance imaging at screening, Day 28 of the first cycle, then approximately every eight weeks till the end of the study for phase 1; in phase 2, imaging was scheduled at screening, and every eight weeks during the first 40 weeks, followed by every 12 weeks for the rest of the study period. RECIST 1.1 was used by the independent review committee or investigators for assessment of tumor response. After the original assessment, a repeated assessment was required around four weeks later to confirm a complete or partial response.
The primary endpoint of phase 2 was the independent review committee evaluated ORR using RECIST 1.1. The secondary endpoints included investigators assessed ORR; DCR, PFS, and DOR by the independent review committee and investigators; overall survival and TEAEs. Each TEAE was graded according to CTCAE version 5.0 and coded by MedDRA (version 24.0). The phase 2 trial is ongoing; not all endpoints are reported in this paper.

[1] = Phase 2 study, patient 3 with Grade 3 QTc prolongation
[2] = Phase 2 study, patient 4 with Grade 3 QTc prolongation
[3] = Phase 2 study, patient 5 with Grade 3 QTc prolongation
[4] = Phase 2 study, patient 7 with Grade 3 QTc prolongation
[5] = Phase 2 study, patient 8 with Grade 3 QTc prolongation

COc1cc2c(Nc3ccc(Br)cc3F)ncnc2cc1OCCCCN(C)C.Cl.Cl [HA121-28, N-(4-bromo-2-fluorophenyl)-7-(4-(dimethylamino)butoxy)-6-methoxy quinazolin-4-amine dihydrochloride]
Serious TEAE: Pneumonia (Phase 2, 450 mg (N=48)): 1 (2.1) No. (%)
Serious TEAE: Pneumonitis (Phase 2, 450 mg (N=48)): 1 (2.1) No. (%)
Serious TEAE: Prolonged QT interval (Phase 2, 450 mg (N=48)): 0 No. (%)
Serious TEAE: Pulmonary embolism (Phase 2, 450 mg (N=48)): 1 (2.1) No. (%)
Serious TEAE: Pyrexia (Phase 2, 450 mg (N=48)): 1 (2.1) No. (%)
Serious TEAE: Rash (Phase 2, 450 mg (N=48)): 2 (4.2) No. (%)
Serious TEAE: Rectal hemorrhage (Phase 2, 450 mg (N=48)): 0 No. (%)
Serious TEAE: Respiratory failure (Phase 2, 450 mg (N=48)): 1 (2.1) No. (%)
Serious TEAE: Seizure (Phase 2, 450 mg (N=48)): 0 No. (%)
Serious TEAE: Septic shock (Phase 2, 450 mg (N=48)): 1 (2.1) No. (%)
Serious TEAE: Sudden cardiac arrest (Phase 2, 450 mg (N=48)): 0 No. (%)
Serious TEAE: Sudden death (Phase 2, 450 mg (N=48)): 0 No. (%)
Serious TEAE: Upper respiratory tract infection (Phase 2, 450 mg (N=48)): 0 No. (%)
Serious TEAE: Ventricular tachycardia (Phase 2, 450 mg (N=48)): 0 No. (%)
Serious TEAE: Vomiting (Phase 2, 450 mg (N=48)): 0 No. (%)
Serious TEAE: Weight loss (Phase 2, 450 mg (N=48)): 0 No. (%)
Serious TRAE: ALT increased (Phase 2, 450 mg (N=48)): 1 (2.1) No. (%)
Serious TRAE: AST increased (Phase 2, 450 mg (N=48)): 1 (2.1) No. (%)
Serious TRAE: Abdominal Pain (Phase 2, 450 mg (N=48)): 1 (2.1) No. (%)
Serious TRAE: Abdominal distension (Phase 2, 450 mg (N=48)): 0 No. (%)
Serious TRAE: Acute cholecystitis (Phase 2, 450 mg (N=48)): 0 No. (%)
Serious TRAE: Acute pancreatitis (Phase 2, 450 mg (N=48)): 0 No. (%)
Serious TRAE: Anal abscess (Phase 2, 450 mg (N=48)): 0 No. (%)
Serious TRAE: Any (Phase 2, 450 mg (N=48)): 9 (18.8) No. (%)
Serious TRAE: Aortic intramural hematoma (Phase 2, 450 mg (N=48)): 0 No. (%)
Serious TRAE: Arrhythmia (Phase 2, 450 mg (N=48)): 0 No. (%)
Serious TRAE: Blood bilirubin increased (Phase 2, 450 mg (N=48)): 0 No. (%)
Serious TRAE: Blood creatinine increased (Phase 2, 450 mg (N=48)): 0 No. (%)
Serious TRAE: COVID-19 (Phase 2, 450 mg (N=48)): 0 No. (%)
Serious TRAE: Cardiac tamponade (Phase 2, 450 mg (N=48)): 0 No. (%)
Serious TRAE: Coronary artery atherosclerosis (Phase 2, 450 mg (N=48)): 0 No. (%)
Serious TRAE: Death (Phase 2, 450 mg (N=48)): 0 No. (%)
Serious TRAE: Dermatitis allergic (Phase 2, 450 mg (N=48)): 1 (2.1) No. (%)
Serious TRAE: Diarrhea (Phase 2, 450 mg (N=48)): 1 (2.1) No. (%)
Serious TRAE: Drug eruption (Phase 2, 450 mg (N=48)): 0 No. (%)
Serious TRAE: Dyspnea (Phase 2, 450 mg (N=48)): 0 No. (%)
Serious TRAE: Embolism (Phase 2, 450 mg (N=48)): 0 No. (%)
Serious TRAE: Erythema multiforme (Phase 2, 450 mg (N=48)): 1 (2.1) No. (%)
Serious TRAE: Headache (Phase 2, 450 mg (N=48)): 0 No. (%)
Serious TRAE: Hemoptysis (Phase 2, 450 mg (N=48)): 0 No. (%)
Serious TRAE: Hydronephrosis (Phase 2, 450 mg (N=48)): 0 No. (%)
Serious TRAE: Hypertension (Phase 2, 450 mg (N=48)): 2 (4.2) No. (%)
Serious TRAE: Hypoalbuminemia (Phase 2, 450 mg (N=48)): 0 No. (%)
Serious TRAE: Intestinal obstruction (Phase 2, 450 mg (N=48)): 0 No. (%)
Serious TRAE: Intra-abdominal fluid collection (Phase 2, 450 mg (N=48)): 0 No. (%)
Serious TRAE: Intracranial tumor hemorrhage (Phase 2, 450 mg (N=48)): 0 No. (%)
Serious TRAE: Liver injury (Phase 2, 450 mg (N=48)): 0 No. (%)
Serious TRAE: Lung adenocarcinoma (Phase 2, 450 mg (N=48)): 0 No. (%)
Serious TRAE: Malignant neoplasm progression (Phase 2, 450 mg (N=48)): 0 No. (%)
Serious TRAE: Multiple organ dysfunction syndrome (Phase 2, 450 mg (N=48)): 0 No. (%)
Serious TRAE: Nausea (Phase 2, 450 mg (N=48)): 0 No. (%)
Serious TRAE: Nephrolithiasis (Phase 2, 450 mg (N=48)): 0 No. (%)
Serious TRAE: Platelet counts decreased (Phase 2, 450 mg (N=48)): 0 No. (%)
Serious TRAE: Pleural effusion (Phase 2, 450 mg (N=48)): 0 No. (%)
Serious TRAE: Pneumonia (Phase 2, 450 mg (N=48)): 0 No. (%)
Serious TRAE: Pneumonitis (Phase 2, 450 mg (N=48)): 0 No. (%)
Serious TRAE: Prolonged QT interval (Phase 2, 450 mg (N=48)): 0 No. (%)
Serious TRAE: Pulmonary embolism (Phase 2, 450 mg (N=48)): 1 (2.1) No. (%)
Serious TRAE: Pyrexia (Phase 2, 450 mg (N=48)): 0 No. (%)
Serious TRAE: Rash (Phase 2, 450 mg (N=48)): 2 (4.2) No. (%)
Serious TRAE: Rectal hemorrhage (Phase 2, 450 mg (N=48)): 0 No. (%)
Serious TRAE: Respiratory failure (Phase 2, 450 mg (N=48)): 0 No. (%)
Serious TRAE: Seizure (Phase 2, 450 mg (N=48)): 0 No. (%)
Serious TRAE: Septic shock (Phase 2, 450 mg (N=48)): 0 No. (%)
Serious TRAE: Sudden cardiac arrest (Phase 2, 450 mg (N=48)): 0 No. (%)
Serious TRAE: Sudden death (Phase 2, 450 mg (N=48)): 0 No. (%)
Serious TRAE: Upper respiratory tract infection (Phase 2, 450 mg (N=48)): 0 No. (%)
Serious TRAE: Ventricular tachycardia (Phase 2, 450 mg (N=48)): 0 No. (%)
Serious TRAE: Vomiting (Phase 2, 450 mg (N=48)): 0 No. (%)
Serious TRAE: Weight loss (Phase 2, 450 mg (N=48)): 0 No. (%)
Grade of cardiac TEAE: sinus bradycardia (Phase 2 study, patient 1 with Grade 3 QTc prolongation): 1
Grade of cardiac TEAE: cronary arteriosclerosis (Phase 2 study, patient 2 with Grade 3 QTc prolongation): 2
Grade of cardiac TEAE: Supraventricular extrasystoles [1]: 1
Grade of cardiac TEAE: arhythmia [1]: 1
Grade of cardiac TEAE: sinus bradycardia [1]: 1
Grade of cardiac TEAE: ventricular extrasystole [1]: 2
Grade of cardiac TEAE: Ejection fraction reduced [2]: 2
Grade of cardiac TEAE: Left ventricular dysfunction [2]: 2
Grade of cardiac TEAE: Supraventricular extrasystoles [2]: 1
Grade of cardiac TEAE: Ventricular wall movement diffusky diminshed [2]: 2
Grade of cardiac TEAE: nodal tachycardia [2]: 1
Grade of cardiac TEAE: T wave abnormal [3]: 1
Grade of cardiac TEAE: nodal tachycardia [3]: 1
Grade of cardiac TEAE: myocardial damage (Phase 2 study, patient 6 with Grade 3 QTc prolongation): 2
Grade of cardiac TEAE: Supraventricular extrasystoles [4]: 2
Grade of cardiac TEAE: T wave abnormal [4]: 2
Grade of cardiac TEAE: U wave abnormal [4]: 2
Grade of cardiac TEAE: T wave abnormal [5]: 1
Grade of cardiac TEAE: nodal tachycardia [5]: 1
Grade of cardiac TEAE: nodal tachycardia (Phase 2 study, patient 9 with Grade 3 QTc prolongation): 1
grade ≥ 3 TEAE diarrhea (phase 2): 12.5%
grade ≥ 3 TEAE hypertension (phase 2): 18.8%
grade ≥ 3 TEAE prolonged QT interval (phase 2): 31.3%
patients with at least one SAE (phase 2): 39.6%
patients with at least one TRAE (phase 2): 95.8%
patients with grade ≥3 TRAEs (phase 2): 62.5%
patients with treatment-related SAE (phase 2): 18.8%
≥ grade-3 prolonged QT interval with dose interruption (phase 2): 14.6%
≥ grade-3 prolonged QT interval with dose reduction (phase 2): 6.3%
